According to patent publication US20150087673A1, “METHODS FOR USING AND BIOMARKERS FOR AMPK-ACTIVATING COMPOUNDS” (RIGEL PHARMACEUTICALS, INC., priority 2013, published 2015):

Test system: AMPK
Assay: AMPK activation assay (enzyme-linked immunosorbent assay)
Type: cell-based
Method in brief: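 Test compounds were added, and kinase activation was then detected by immunoassay following established kit procedures.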

EC50	Structure (SMILES)
< 500 nM	COc1ccc(OC2CCN(C(=O)c3ccc(C(=O)NC4CCN(Cc5ccc(F)cc5)CC4)nc3)CC2)cc1 [Compound 183, N-(1-(4-fluorobenzyl)piperidin-4-yl)-5-(4-(4-methoxyphenoxy)piperidine-1-carbonyl)picolinamide]
< 500 nM	O=C(NC1CCN(Cc2ccc(OC(F)(F)F)cc2)CC1)c1ccc(C(=O)N2CCC(Oc3cccc(NC(=O)C4CC4)c3)CC2)nc1 [Compound 438, 6-(4-(3-(cyclopropanecarboxamido)phenoxy)piperidine-1-carbonyl)-N-(1-(4-(trifluoromethoxy)benzyl)piperidin-4-yl)nicotinamide]
< 500 nM	CS(=O)(=O)c1ccc(OC2CCN(C(=O)c3ccc(C(=O)N[C@@H]4CCN(Cc5ccc(C#N)cc5)C[C@H]4F)nc3)CC2)cc1 (relative stereo) [Compound 254, N-((trans)-1-(4-cyanobenzyl)-3-fluoropiperidin-4-yl)-5-(4-(4-(methylsulfonyl)phenoxy)piperidine-1-carbonyl)picolinamide]
500 to 1000 nM	CC(=O)Nc1ccc(OC2CCN(C(=O)c3ccc(C(=O)NC4CCN(Cc5ccc(F)cc5)CC4)cn3)CC2)cc1 [Compound 406, 6-(4-(4-acetamidophenoxy)piperidine-1-carbonyl)-N-(1-(4-fluorobenzyl)piperidin-4-yl)nicotinamide]
< 500 nM	COc1ccc(OC2CCN(C(=O)c3ccc(C(=O)N[C@H]4CC[C@@H](Oc5ccc(C(F)(F)F)cc5)CC4)nc3)CC2)cc1 [Compound 191, 5-(4-(4-methoxyphenoxy)piperidine-1-carbonyl)-N-((cis)-4-(4-(trifluoromethyl)phenoxy)cyclohexyl) picolinamide]
< 500 nM	COc1ccc(C(=O)C2CCN(C(=O)c3ccc(C(=O)NC4CCN(Cc5ccc(N6CCCC6)cc5)CC4)nc3)CC2)cc1 [Compound 194, 5-(4-(4-methoxybenzoyl)piperidine-1-carbonyl)-N-(1-(4-(pyrrolidin-1-yl)benzyl)piperidin-4-yl)picolinamide]
< 500 nM	O=C(Nc1ccc(Oc2ccc(F)cc2)nc1)c1ccc(C(=O)N2CCC(C(=O)c3ccc(N4CCCC4)cc3)CC2)cn1 [Compound 368, N-(6-(4-fluorophenoxy)pyridin-3-yl)-5-(4-(4-(pyrrolidin-1-yl)benzoyl)piperidine-1-carbonyl)picolinamide]
< 500 nM	COc1ccc(C(=O)C2CCN(C(=O)c3ccc(C(=O)N[C@H]4CCN(Cc5ccc(C#N)cc5)C[C@@H]4F)cn3)CC2)cc1 [Compound 453, N-((3S,4S)-1-(4-cyanobenzyl)-3-fluoropiperidin-4-yl)-6-(4-(4-methoxybenzoyl)piperidine-1-carbonyl)nicotinamide]
< 500 nM	N#Cc1ccc(CN2CCC(C(=O)Nc3ccc(C(=O)N4CCC(Oc5ccc(F)cc5)CC4)cn3)CC2)cc1 [Compound 173, 1-(4-cyanobenzyl)-N-(5-(4-(4-fluorophenoxy)piperidine-1-carbonyl)pyridin-2-yl)piperidine-4-carboxamide]
1000 to 5000 nM	O=C(Nc1ccc(Oc2ccc(F)cc2)nc1)c1ccc(C(=O)N2CCC(Oc3ccc(NS(=O)(=O)C4CC4)cc3)CC2)nc1 [Compound 449, 6-(4-(4-(cyclopropanesulfonamido)phenoxy)piperidine-1-carbonyl)-N-(6-(4-fluorophenoxy)pyridin-3-yl)nicotinamide]
< 500 nM	COc1ccc(C(=O)C2CCN(C(=O)c3ccc(C(=O)Nc4ccc(Oc5ccc(C(=O)N(C)C)cc5)nc4)cn3)CC2)cc1 [Compound 480, N-(6-(4-(dimethylcarbamoyl)phenoxy)pyridin-3-yl)-6-(4-(4-methoxybenzoyl)piperidine-1-carbonyl)nicotinamide]
< 500 nM	N#Cc1ccc(CN2CCC(NC(=O)c3ccc(C(=O)N4CCC(Oc5ccc(C#N)cc5)CC4)nn3)CC2)cc1 [Compound 388, N-(1-(4-cyanobenzyl)piperidin-4-yl)-6-(4-(4-cyanophenoxy)piperidine-1-carbonyl)pyridazine-3-carboxamide]
< 500 nM	O=C(Nc1ccc(-c2ccccc2)cc1)c1ccc(C(=O)N2CCN(Cc3ccc(F)cc3)CC2)cn1 [Compound 11]
< 500 nM	COc1ccc(O[C@H]2CC[C@@H](NC(=O)c3ccc(C(=O)N4CCC(C(=O)c5ccc(OC)cc5)CC4)cn3)CC2)cc1 [Compound 184, 5-(4-(4-methoxybenzoyl)piperidine-1-carbonyl)-N-((cis)-4-(4-methoxyphenoxy)cyclohexyl)picolinamide]
< 500 nM	COc1ccc(C(=O)C2CCN(C(=O)c3ccc(C(=O)NC4CCN(Cc5cccc(OC)c5)CC4)cn3)CC2)cc1 [Compound 425, 6-(4-(4-methoxybenzoyl)piperidine-1-carbonyl)-N-(1-(3-methoxybenzyl)piperidin-4-yl) nicotinamide]
< 500 nM	N#Cc1ccc(CN2CCC(NC(=O)c3ccc(C(=O)N4CCC(Cc5ccc(F)cc5)CC4)cn3)CC2)cc1 [Compound 130, N-(1-(4-cyanobenzyl)piperidin-4-yl)-5-(4-(4-fluorobenzyl)piperidine-1-carbonyl)picolinamide]
< 500 nM	COc1ccc(CN2CCC(NC(=O)c3ccc(C(=O)N4CCC(C(=O)c5ccc(F)cc5F)CC4)cn3)CC2)cc1 [Compound 331, 5-(4-(2,4-difluorobenzoyl)piperidine-1-carbonyl)-N-(1-(4-methoxybenzyl)piperidin-4-yl) picolinamide]

EC50	Structure (SMILES)
< 500 nM	N#Cc1ccc(CN2CCC(NC(=O)c3ccc(C(=O)N4CCC(Oc5ccc(S(=O)(=O)C(F)(F)F)cc5)CC4)nc3)CC2)cc1 [Compound 450, N-(1-(4-cyanobenzyl)piperidin-4-yl)-6-(4-(4-(trifluoromethylsulfonyl)phenoxy)piperidine-1-carbonyl)nicotinamide]
< 500 nM	CC(=O)c1ccc(OC2CCN(C(=O)c3ccc(C(=O)Nc4ccc(Oc5ccc(F)cc5)nc4)cn3)CC2)cc1 [Compound 395, 6-(4-(4-acetylphenoxy)piperidine-1-carbonyl)-N-(6-(4-fluorophenoxy)pyridin-3-yl)nicotinamide]
< 500 nM	N#Cc1ccc(CN2CCC(NC(=O)c3ccc(C(=O)N4CCC(C(=O)c5ccc(N=[N+]=[N-])cc5)CC4)nc3)CC2)cc1 [Compound 240, 6-(4-(4-azidobenzoyl)piperidine-1-carbonyl)-N-(1-(4-cyanobenzyl)piperidin-4-yl)nicotinamide]
> 10000 nM	COc1ccc(C(=O)C2CCN(C(=O)c3ccc(C(=O)NC4CCN(Cc5ccc(S(C)(=O)=O)cc5)CC4)cn3)CC2)cc1 [Compound 215, 6-(4-(4-methoxybenzoyl)piperidine-1-carbonyl)-N-(1-(4-(methylsulfonyl)benzyl)piperidin-4-yl)nicotinamide]
< 500 nM	N#Cc1ccc(CN2CCC(NC(=O)c3ccc(N4CCC(Oc5ccc(C(F)(F)F)cc5)CC4)cn3)CC2)cc1 [Compound 301, N-(1-(4-cyanobenzyl)piperidin-4-yl)-5-(4-(4-(trifluoromethyl)phenoxy)piperidin-1-yl)picolinamide]
< 500 nM	N#Cc1ccc(CN2CCC(NC(=O)c3ccc(C(=O)N4CCN(c5ccc(F)cc5)CC4)cn3)CC2)cc1 [Compound 341, N-(1-(4-cyanobenzyl)piperidin-4-yl)-5-(4-(4-fluorophenyl)piperazine-1-carbonyl)picolinamide]
1000 to 5000 nM	N#Cc1ccc(CN2CCC(NC(=O)c3ccc(C(=O)Nc4cnn(Cc5ccc(C#N)cc5)c4)cn3)CC2)cc1 [Compound 43, N^5-(1-(4-cyanobenzyl)-1H-pyrazol-4-yl)-N^2-(1-(4-cyanobenzyl)piperidin-4-yl)pyridine-2,5-dicarboxamide]
< 500 nM	N#Cc1ccc(CN2CCC(NC(=O)c3ccc(C(=O)N4CCN(Cc5ccncc5)CC4)cn3)CC2)cc1 [Compound 103, N-(1-(4-cyanobenzyl)piperidin-4-yl)-5-(4-(pyridin-4-ylmethyl)piperazine-1-carbonyl)picolinamide]
< 500 nM	COc1ccc(C(=O)C2CCN(C(=O)c3ccc(C(=O)N[C@H]4CC[C@@H](Oc5cc(F)cc(F)c5)CC4)nc3)CC2)cc1 [Compound 300, N-((cis)-4-(3,5-difluorophenoxy)cyclohexyl)-5-(4-(4-methoxybenzoyl)piperidine-1-carbonyl)picolinamide]
< 500 nM	N#Cc1ccc(CN2CCC(NC(=O)c3ccc(C(=O)N4CCC(Oc5ccc(F)cc5F)CC4)cn3)CC2)cc1 [Compound 282, N-(1-(4-cyanobenzyl)piperidin-4-yl)-5-(4-(2,4-difluorophenoxy)piperidine-1-carbonyl)picolinamide]
< 500 nM	O=C(NC1CCN(Cc2ccc(OC(F)(F)F)cc2)CC1)c1ccc(C(=O)N2CCC(C(=O)c3ccc(N4CCCC4)cc3)CC2)nc1 [Compound 440, 6-(4-(4-(pyrrolidin-1-yl)benzoyl)piperidine-1-carbonyl)-N-(1-(4-(trifluoromethoxy)benzyl)piperidin-4-yl)nicotinamide]
< 500 nM	O=C(NC1CCN(Cc2ccc(F)cc2)CC1)c1ccc(C(=O)N2CCN(Cc3ccc(F)cc3)CC2)nc1 [Compound 328, 6-(4-(4-fluorobenzyl)piperazine-1-carbonyl)-N-(1-(4-fluorobenzyl)piperidin-4-yl)nicotinamide]
< 500 nM	N#Cc1ccc(CN2CCC(NC(=O)c3ccc(C(=O)N4CCN(c5ccc(C(F)(F)F)cc5)CC4)cn3)CC2)cc1 [Compound 339, N-(1-(4-cyanobenzyl)piperidin-4-yl)-5-(4-(4-(trifluoromethyl)phenyl)piperazine-1-carbonyl)picolinamide]
< 500 nM	N#Cc1ccc(CC2CCN(C(=O)c3ccc(C(=O)NC4CCN(Cc5ccc(C#N)cc5)CC4)nc3)CC2)cc1 [Compound 128, N-(1-(4-cyanobenzyl)piperidin-4-yl)-5-(4-(4-cyanobenzyl)piperidine-1-carbonyl)picolinamide]
< 500 nM	O=C(NC1CCN(Cc2ccc(N3CCCC3)cc2)CC1)c1ccc(C(=O)N2CCC(C(=O)c3ccc(N4CCCC4)cc3)CC2)nc1 [Compound 444, 6-(4-(4-(pyrrolidin-1-yl)benzoyl)piperidine-1-carbonyl)-N-(1-(4-(pyrrolidin-1-yl)benzyl)piperidin-4-yl)nicotinamide]
< 500 nM	O=C(Nc1ccc(Oc2ccc(F)cc2)nc1)c1ccc(C(=O)N2CCC(Oc3ccc(S(=O)(=O)C4CC4)cc3)CC2)nc1 [Compound 247, 6-(4-(4-(cyclopropylsulfonyl)phenoxy)piperidine-1-carbonyl)-N-(6-(4-fluorophenoxy)pyridin-3-yl)nicotinamide]
